# Source: patent US20110287089A1, “USE OF A SACCHAROMYCES CEREVISIAE MITOCHONDRIAL NUCLEIC ACIDS FRACTION FOR IMMUNE STIMULATION” (priority 2009, published 2011)
# Peptide text beside a SMILES is read from it. * marks the point of attachment. X1 = CCCCCCCCCCCCCCCC(=O)OCC(C*)OC(=O)CCCCCCCCCCCCCCC
# Tests used:
# [1] = target: T1, hTLR2/6 (Homo sapiens, UniProt O60603+Q9Y2C9); type: cell-based
# T1 construct: host or cells: HEK-293 (293/hTLR2/6, clone hTLR 2/6-luc)
# Description: (§1) Cells: Human embryonic kidney cells 293 (HEK) were stably transfected with plasmids allowing for the constitutive expression of one or two Toll like Receptors of human origin (hTLR). The resulting cell lines 293/hTLR2-CD14, 293/hTLR3, 293/hTLR4-MD2-CD14, 293/hTLR5, 293/hTLR2/6, 293/hTLR7, 293/hTLR8 and 293/hTLR9 were purchased from InvivoGen (San Diego, Calif., USA). All cell lines were cultivated in the presence of Blasticidin S (10 μg/ml, InvivoGen) in Dulbecco's […] Eagle's medium (DMEM) supplemented with 10% fetal calf serum, 40 μg/ml Gentamycin, 2 mM Glutamine, 1 mM sodium pyruvate (Sigma) and 1× Non Essential Amino acids (NEAA, Gibco). In the case of 293/hTLR2-CD14 and 293/hTLR4-MD2-CD14 Hygromycin B was added to a concentration of 100 μg/ml. All eight cell lines were stably transfected with the NF-kB-inducible reporter plasmid pNiFty (InvivoGen). pNiFty encodes the firefly luciferase gene under control of an engineered ELAM1 promoter which combines five NF-kB sites and the proximal ELAM promoter. Stable transfectants were selected in the presence of 100 μg/ml Zeocin (InvivoGen). The emerging clones “hTLRx-luc” were characterized with respect to EC50 and fold-induction to the respective control TLR ligands. Clones with lowest EC50 and high fold inductions and good/acceptable growth behaviour were chosen.
# (§2) In vitro TLR tests—method: Cells diluted in DMEM supplemented with 2% fetal calf serum, 40 μg/ml Gentamycin, 2 mM Glutamine, 1 mM sodium pyruvate (Sigma) and 1×MEM non essential amino acids (NEAA, Gibco) were seeded in 96 well plates. The next day. NA fraction (stock: 1 mg/ml) either alone or in combination with Lipofectin® (as described in Example 1) was added at a concentration of 16 μg/ml and 3-fold serial dilutions thereof. As positive controls, the cell lines were stimulated with a defined amount of their respective reference ligands. The day after stimulation (18-20 hours) later, cells were lysed in 100 μl buffer containing 125 mM Tris pH 7.8, 10 mM EDTA, 5 mM DTT and 5% Triton X-100. Firefly luciferase activity in 10 μl lysate was quantified by integrate measurement of flash luminescence over 1 sec (LB96 P Microlumat, Berthold) after addition of 50 μl luciferase revelation buffer (1× luciferase revelation buffer: 20 mM Tris pH 7.8, 1.07 mM MgCl2, 2.7 mM MgSO4, 0.1 mM EDTA, 33.3 mM DTT, 470 μM luciferine 530 μM ATP and 270 μM CoEnzyme A). The resulting relative light units (RLU) were expressed as percentage of induction compared to the control ligand and analyzed with the Graph Pad Prism 4 software using an equation for sigmoid dose response (determination of EC50).
# [2] = target: T2, hTLR2 (Homo sapiens, UniProt O60603); type: cell-based
# T2 construct: host or cells: HEK-293 (293/hTLR2-CD14, clone hTLR 2-luc)
# T2 sequence (O60603 21-784): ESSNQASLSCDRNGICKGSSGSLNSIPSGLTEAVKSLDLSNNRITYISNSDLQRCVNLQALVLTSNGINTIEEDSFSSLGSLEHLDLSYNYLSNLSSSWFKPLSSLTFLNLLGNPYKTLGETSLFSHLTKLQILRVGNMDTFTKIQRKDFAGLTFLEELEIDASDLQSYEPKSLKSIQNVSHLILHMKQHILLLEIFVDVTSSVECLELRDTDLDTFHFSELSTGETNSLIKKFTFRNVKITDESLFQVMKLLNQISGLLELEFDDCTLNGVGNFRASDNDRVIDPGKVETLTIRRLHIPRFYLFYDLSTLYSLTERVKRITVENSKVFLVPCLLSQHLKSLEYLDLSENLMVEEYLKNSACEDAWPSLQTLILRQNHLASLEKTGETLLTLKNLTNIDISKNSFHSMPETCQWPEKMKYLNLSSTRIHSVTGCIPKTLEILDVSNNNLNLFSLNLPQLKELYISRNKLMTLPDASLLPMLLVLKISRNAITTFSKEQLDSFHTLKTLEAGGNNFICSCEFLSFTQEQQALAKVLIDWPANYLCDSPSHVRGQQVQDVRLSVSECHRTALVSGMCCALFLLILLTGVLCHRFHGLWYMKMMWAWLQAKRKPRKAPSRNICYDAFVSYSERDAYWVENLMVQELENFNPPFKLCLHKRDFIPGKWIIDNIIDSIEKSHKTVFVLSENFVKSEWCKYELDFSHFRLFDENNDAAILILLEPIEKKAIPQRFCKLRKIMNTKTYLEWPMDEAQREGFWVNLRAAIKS
# T2 sequence (Q9Y2C9 32-796 partner): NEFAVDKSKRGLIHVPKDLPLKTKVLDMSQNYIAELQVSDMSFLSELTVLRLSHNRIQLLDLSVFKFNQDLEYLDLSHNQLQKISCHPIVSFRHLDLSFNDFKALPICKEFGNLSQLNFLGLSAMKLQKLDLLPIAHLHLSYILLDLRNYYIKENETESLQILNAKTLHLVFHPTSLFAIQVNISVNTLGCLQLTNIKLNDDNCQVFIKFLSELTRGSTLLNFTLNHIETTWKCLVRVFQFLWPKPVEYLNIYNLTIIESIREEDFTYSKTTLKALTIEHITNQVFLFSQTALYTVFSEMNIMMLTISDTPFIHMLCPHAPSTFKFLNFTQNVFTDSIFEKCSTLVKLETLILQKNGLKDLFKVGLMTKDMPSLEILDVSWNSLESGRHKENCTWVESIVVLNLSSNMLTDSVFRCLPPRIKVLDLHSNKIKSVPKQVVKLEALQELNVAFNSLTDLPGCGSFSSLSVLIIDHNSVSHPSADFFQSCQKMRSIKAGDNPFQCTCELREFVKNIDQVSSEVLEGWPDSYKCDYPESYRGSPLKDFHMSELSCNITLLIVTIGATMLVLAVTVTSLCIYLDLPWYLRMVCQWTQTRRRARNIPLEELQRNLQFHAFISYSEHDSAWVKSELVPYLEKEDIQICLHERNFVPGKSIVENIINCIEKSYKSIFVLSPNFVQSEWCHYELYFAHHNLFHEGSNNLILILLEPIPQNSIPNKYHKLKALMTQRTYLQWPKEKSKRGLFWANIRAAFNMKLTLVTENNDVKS
# Description: as §1, §2
# [3] = target: T3, hTLR5 (Homo sapiens, UniProt O60602); type: cell-based
# T3 construct: host or cells: HEK-293 (293/hTLR5, clone hTLR 5-luc)
# T3 sequence (O60602 21-858): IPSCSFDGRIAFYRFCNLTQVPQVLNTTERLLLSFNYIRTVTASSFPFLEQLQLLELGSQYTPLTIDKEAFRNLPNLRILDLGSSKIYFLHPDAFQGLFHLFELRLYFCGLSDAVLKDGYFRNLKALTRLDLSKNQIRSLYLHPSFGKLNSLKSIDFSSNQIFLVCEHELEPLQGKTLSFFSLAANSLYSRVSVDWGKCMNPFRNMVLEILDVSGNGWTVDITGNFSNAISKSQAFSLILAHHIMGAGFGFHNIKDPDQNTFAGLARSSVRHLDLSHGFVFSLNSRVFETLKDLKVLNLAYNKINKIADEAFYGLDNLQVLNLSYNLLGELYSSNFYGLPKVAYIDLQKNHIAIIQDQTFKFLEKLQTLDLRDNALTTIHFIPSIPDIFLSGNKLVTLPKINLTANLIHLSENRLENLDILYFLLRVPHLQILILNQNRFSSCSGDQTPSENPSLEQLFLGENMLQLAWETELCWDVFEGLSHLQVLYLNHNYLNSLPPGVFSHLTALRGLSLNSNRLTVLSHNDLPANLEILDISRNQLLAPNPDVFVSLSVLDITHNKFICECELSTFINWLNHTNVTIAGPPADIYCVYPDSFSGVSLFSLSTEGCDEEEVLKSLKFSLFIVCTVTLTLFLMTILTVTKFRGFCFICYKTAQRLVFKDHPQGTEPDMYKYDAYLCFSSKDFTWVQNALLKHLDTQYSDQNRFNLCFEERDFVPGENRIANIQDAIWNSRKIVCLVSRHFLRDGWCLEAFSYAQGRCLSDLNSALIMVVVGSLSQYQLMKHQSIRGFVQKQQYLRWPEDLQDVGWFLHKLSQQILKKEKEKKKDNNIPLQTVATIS
# Description: as §1, §2
# [4] = tested on: R9F specific CD8+ T cells secreting IFN-γ; experiment: In vivo ELISpot gamma interferon (IFN-γ) after immunisation with HPV16E7; conditions: C57BL/6 mice; HPV16E7 protein 10 μg subcutaneously day 0, 7, 14, alone or with NA fraction (25 μg) or NA-B2 fraction (0.4 μg); splenocytes 7 days after last injection; FIG. 2
# Description: Animals model: SPF healthy female C57BL/6 mice were obtained from Charles River (Les Oncins, France). The animals were 6-weeks-old upon arrival. At the beginning of experimentation, they were 7-week-old. The animals were housed in a single, exclusive room, air-conditioned to provide a minimum of 11 air changes per hour. The temperature and relative humidity ranges were within 20° C. and 24° C. and 40 to 70% respectively. Lighting was controlled automatically to give a cycle of 12 hours of light and 12 hours of darkness. Specific pathogen free status was checked by regular control of sentinel animals. Throughout the study the animals had access ad libitum to sterilized diet type RM1 (Dietex France, Saint Gratien). Sterile water was provided ad libitum via bottles.
# IFN-γ ELIspot assay is a functional test to determine the ability of in vivo primed T cells to secrete IFN-γ upon re-stimulation in vitro with a specific peptide.
# Animals were injected 3 times at a one week interval (day 0; day 7; day 14), subcutaneously (at the base of the tail) with preparations as described in Table 4.
# Animals were then sacrificed 7 days after the last injection and their splenocytes were used to determine the frequency of R9F specific CD8+ T cells secreting IFN-γ upon re-stimulation. […]
# [5] = target: T4, hTLR3 (Homo sapiens, UniProt O15455); type: cell-based
# T4 construct: host or cells: HEK-293 (293/hTLR3, clone hTLR 3-luc)
# T4 sequence (O15455 24-904): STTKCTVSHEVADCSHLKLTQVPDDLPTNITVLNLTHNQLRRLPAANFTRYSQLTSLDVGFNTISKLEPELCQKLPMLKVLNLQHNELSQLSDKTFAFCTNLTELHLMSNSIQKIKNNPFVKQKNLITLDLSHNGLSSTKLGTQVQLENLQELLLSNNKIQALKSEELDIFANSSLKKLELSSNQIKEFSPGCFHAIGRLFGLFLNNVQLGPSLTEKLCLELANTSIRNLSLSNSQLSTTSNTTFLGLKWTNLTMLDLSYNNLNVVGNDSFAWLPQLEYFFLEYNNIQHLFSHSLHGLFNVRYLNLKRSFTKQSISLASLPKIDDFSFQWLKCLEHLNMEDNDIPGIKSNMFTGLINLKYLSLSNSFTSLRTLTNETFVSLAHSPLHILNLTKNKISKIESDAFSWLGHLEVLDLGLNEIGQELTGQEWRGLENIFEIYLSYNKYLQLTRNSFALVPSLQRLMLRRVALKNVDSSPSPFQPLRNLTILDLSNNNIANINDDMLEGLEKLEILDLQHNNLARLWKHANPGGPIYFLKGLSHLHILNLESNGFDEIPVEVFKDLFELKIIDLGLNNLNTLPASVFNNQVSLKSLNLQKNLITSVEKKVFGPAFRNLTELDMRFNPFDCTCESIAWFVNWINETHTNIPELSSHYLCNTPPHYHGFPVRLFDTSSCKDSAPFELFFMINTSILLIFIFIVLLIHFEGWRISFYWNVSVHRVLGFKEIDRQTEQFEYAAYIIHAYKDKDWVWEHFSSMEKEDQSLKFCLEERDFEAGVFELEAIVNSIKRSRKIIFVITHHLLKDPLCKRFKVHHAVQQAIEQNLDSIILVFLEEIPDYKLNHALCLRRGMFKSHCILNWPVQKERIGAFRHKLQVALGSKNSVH
# Description: as §1, §2
# T1 sequence (O60603 21-784): as the sequence (O60603 21-784) above
# T1 sequence (Q9Y2C9 32-796): as the sequence (Q9Y2C9 32-796 partner) above
compound,measurement,setting,value
CCCCCCCCCCCCCCCC(=O)OCC(CSC[C@H](N)C(=O)NCC(=O)N[C@@H](CC(=O)O)C(=O)N1CCC[C@H]1C(=O)N[C@@H](CCCCN)C(=O)N[C@@H](Cc1c[nH]cn1)C(=O)N1CCC[C@H]1C(=O)N[C@@H](CCCCN)C(=O)N[C@@H](CO)C(=O)N[C@@H](Cc1ccccc1)C(=O)O)OC(=O)CCCCCCCCCCCCCCC (stereo partly shown) [FSL-1] (H-C(X1)GDPKHPKSF-OH; N-terminus and C-terminus assumed),fold induction,[1],140
same,fold induction,[2],157
Flagellin,Fold induction max/min,[3],392
same,Ligand EC50,"[3]; hTLR 5-luc clone, control TLR ligand",Flagellin 66.2ng/ml
HPV16E7: HPV16 E7 protein antigen,Level of R9F specific T cells secreting IFN-γ (ELISpot),[4],no R9F specific (HPV16E7 protein) T cells secreting IFN-γ
Poly(I:C),Fold induction max/min,[5],62
same,Ligand EC50,"[5]; hTLR 3-luc clone, control TLR ligand",Poly(I:C) 1.8ng/ml
